Patent publication US20170252306A1, “Pharmaceutical Compositions for Preventing and Treating Th1 or Th2 mediated Immune Disease Comprising 4H3MC(4-Hydroxy-3-methoxycinnamaldehyde) as an Active Ingredient” (GWANGJU INSTITUTE OF SCIENCE AND TECHNOLOGY, priority 2016, published 2017)
pIC50: −log10 of the molar value.

How the values were obtained:
Jurkat T cells = test: Cell death assay (microscopy, 7-AAD/annexin V flow cytometry, Hoechst staining); assay type: cell-based, human; settings: 16 hours
Procedure: Cell death of Jurkat T cells was examined using a double staining method with 7-AAD and annexin V-PE. Jurkat T cells (1×10^6) were indicated concentrations of 4H3MC for 16 hours, and then suspended in 200 μl of HBSS buffer comprising 7-AAD (1 μg/ml) and were incubated at 37° C. for 10 minutes. After 10 minutes, the cells were incubated with 200 μl of HBSS buffer comprising V-PE (20 μg/ml) and analyzed immediately on a BD FACS Canto™ II Flow Cytometer (BD Biosciences). All experiments were performed at least three times.
Jurkat T cells were treated with 10 μM of 4H3MC for 16 hours, and then pelleted onto a PLL-coated cover glass slide (18-mm diameter; Fisher Scientific, Pittsburgh, Pa.) using a cytospin centrifuge. The pelleted cells were fixed in 2% para-formaldehyde at room temperature for 10 minutes, and then washed three times with PBS. As control, cells were stained with TRITC-phalloidin for detecting actin. The slide was incubated for 2 minutes in PBS containing Hoechst dye (1:105) at room temperature, and then the cells were examined using an FV1000 confocal microscope.

AP-1, NF-κB and NFAT = AP-1, NF-κB and NFAT luciferase activity assays; assay type: cell-based, human; settings: transfected Jurkat T cells, 4H3MC 10 μM pretreatment 1 hour, PMA/A23187 16 hours
Procedure: Jurkat T cells (1.5×10^6) were transfected with 100 μl of Amaxa's Nucleofector solution (Amaxa, Germany) containing 3 μg of pGL3-AP-1, pGL3-NF-κB or pGL3-NFAT Luc plasmids, and then the cells were transferred to complete medium and cultured at 37° C. After 48 hours of transfection, the transfected cells were pretreated with 4H3MC (10 μM) for 1 hour, and then stimulated with PMA/A23187 for 16 hours. After […], the cells were harvested and lysed with a lysis buffer for luciferase assay (Promega, Madison, Wis.). Cellular debris was removed from lysed proteins by centrifugation at 16,000×g at 4° C. for 30 minutes. Luciferase activity was measured with a Centro LB 960 Luminometer (Berthold Technologies, Germany).

[1] = tested on: Jurkat T cells and human PBLs; test: IL-2 secretion from activated T cells (ELISA); assay type: cell-based; settings: for pIC50: Jurkat T cells and human PBLs, PMA/A23187 stimulation, supernatants after 36 hours, ELISA, read-out: IC50 of inhibition of IL-2 secretion
Procedure: (§1) Jurkat T cells (5×10^5) or human PBLs (1×10^6) were stimulated with anti-CD3 (OKT3, 10 μg/ml)/CD28 (2 μg/ml) or PMA (100 nM)/A23187 (1 μM). For anti-CD3/CD28 stimulation, cells were placed on a culture dish coated with anti-CD3 antibody, and were then treated with anti-CD28 (2 μg/ml) antibody. For superantigen stimulation, T cells were incubated with SEE (1 μg/ml)-pulsed Raji B cells. For pre- or post-treatment experiments, various concentrations of 4H3MC or HCA were added 30 minutes or 60 minutes before stimulation.
Jurkat T cells or human PBLs were stimulated in the same manner as described above with respect to T-cell stimulation and treatment with 4H3MC or HCA. At the indicated time points, the supernatants were collected, and the concentrations of IL-2 in the supernatants were measured using a Duo set Human IL-2 ELISA kit (R&D Systems).

PKC = PKC activity measurement in Jurkat T cell lysate (ELISA-based kinase assay); assay type: biochemical, human; settings: Jurkat T cell cytosol fraction, compound 0.01-50 μM, PMA 100 nM
Procedure: Jurkat T cells (1×10^6) were suspended in lysis buffer (1% Triton X-100, 150 mM NaCl, 20 mM Tris pH 7.5, protease inhibitor, phosphatase inhibitor), and then kept at 4° C. for 1 hour and centrifuged at 14,000×g for 30 minutes. Cell lysate was incubated with 4H3MC ([…]), HCA ([…]) or STSN (10 nM) at 4° C. for 30 minutes. PMA (100 nM) was added, and PKC activity was measured with a nonradioactive protein kinase assay based on ELISA. The assay was developed with tetramethylbenzidine substrate, and the color developed proportionally to PKC phosphotransferase activity. The intensity of the color was measured at 450 nm. The data were expressed as relative kinase activity.

[2] = tested on: atopic skin disease BALB/c mice; test: DNCB/mite extract-induced atopic skin disease in mice; assay type: in vivo; settings: 4H3MC 50 mg/kg orally every day for 4 weeks
Procedure: With reference to a previously reported publication, atopic skin disease was induced using DNCB and a mite extract. BALB/c mice were divided into four groups, and then the skin was peeled off by touching each earlobe five times with a surgical tape (Seo-il Chemistry, Hwa-sung, Korea). On day 0, 20 μl of DNCB (1%) was applied to each peeled earlobe, and on day 4, 20 μl of a mite extract (10 mg/mL) was applied. DNCB and the mite extract were alternately applied once a week for 4 weeks. From day 1, 4H3MC (50 mg/kg) was administered orally everyday for 4 weeks. Using a thickness meter (Kori Seiki MFG Co., Japan), the ear thickness was measured at 24 hours after application of DNCB or the mite extract. After 28 days, blood was sampled, and the serum portions were stored at […]. After blood sampling, the ear tissue was cut and used for histopathological analysis.

PKCθ = biological target: T1, PKCθ (Homo sapiens, UniProt Q04759); test: PKCθ phosphorylation and accumulation at the immunological synapse (confocal imaging); assay type: cell-based; settings: Jurkat T cells pretreated with 4H3MC 10 μM, conjugates with SEE-pulsed Raji B cells
T1 construct: endogenous in cells; host or cells: Jurkat T cells conjugated with SEE-pulsed Raji B cells
Procedure: Jurkat T cells were pretreated with 10 μM of 4H3MC for 1 hour, while Raji B cells were stained with 1 μM of CMFDA green tracker for 30 minutes. After washing twice with RPMI medium, Raji B cells were incubated with SEE (1 μg/ml) at 37° C. for 30 minutes. SEE-conjugated Raji B cells were incubated with 4H3MC-treated Jurkat T cells for 10 minutes to form an immunological synapse, and then placed on glass coverslips. The cells were fixed with 2% paraformaldehyde and washed with PBS. After washing, the cells were permeabilized with 0.1% TritonX-100 and incubated with primary antibodies (antibodies against CD3, LFA-1, t-PKCθ, p-PKCθ) overnight. On the next day, the cells were washed with PBS, and then incubated with secondary antibodies (cy3-conjugated goat anti-mouse IgG, Texas Red-conjugated goat anti-rabbit IgG antibodies) at room temperature for 1 hour. After washing, the cells were placed on a slide glass using Dako fluorescent mounting medium (Dako, Denmark), followed by drying. The dried slide samples were examined with an FV1000 confocal laser scanning microscope (Olympus), and CD3, LFA-1, t-PKCθ and p-PKCθ accumulation at the immunological synapse was observed and analyzed.

PKCθ, ERK and p38 kinase = test: Western blot of phospho-PKCθ, ERK and p38 in activated Jurkat T cells; assay type: cell-based, human
Procedure: as §1
Jurkat T cells were lysed by cold lysis buffer (1% Triton X-100, 150 mM NaCl, 20 mM Tris, pH 7.5, protease inhibitor and phosphatase inhibitor) for 1 hour, and then centrifuged at 4° C. at 16,000×g for 30 minutes. About 100 μg of the extract lysate was separated through 10% SDS-PAGE. Proteins were transferred into a nitrocellulose membrane by means of Trans-Blot SD semidry transfer cell (Bio-Rad, Hercules, Calif.). The membrane was blocked in 5% skim milk for 1 hour, washed, and then incubated with the indicated antibodies in 3% skim milk overnight. Excess primary antibody was removed by washing the membrane with TBST, and then the membrane was incubated with peroxidase-conjugated secondary antibody for 2 hours. After washing with TBST, bands were visualized by Western blotting detection reagent and then exposed to x-ray film.

[3] = tested on: Jurkat T cells and human PBLs; test: IL-2 mRNA expression in activated T cells (real-time PCR); assay type: cell-based
Procedure: as §1
Total RNA was isolated from Jurkat T cells using TRIZOL reagent (JBI, Korea). Reverse transcription of the RNA was performed using RT Pre-Mix (Intron, Korea). The primers and PCR conditions were as follows: […]
The amplification profile was composed of denaturation at 94° C. for 30 seconds, annealing at 60° C. for 20 seconds, and extension at 72° C. for 40 seconds. 30 cycles were preceded by denaturation at […] for 7 minutes. In some experiments, the expression levels of IL-2 mRNA were evaluated by real-time RT-PCR. Total RNA was isolated and cDNA was synthesized as described above. PCR amplification was performed in Step One Real-time PCR system (Applied Biosystems, Foster city, CA) for continuous fluorescence detection system using SYBR (Takara, Japan). Each PCR reaction was performed under the following conditions: 94° C. for 30 sec, 60° C. for 30 sec and 72° C. for 30 sec, plate read (detection of fluorescent product) for cycles, followed by extension at 72° C. for 7 min. Melting curve analysis was done to characterize the double-stranded DNA product. The levels of IL-2 mRNA normalized for GAPDH were expressed as fold changes relative to that of untreated controls. All experiments were performed at least three times.

[4] = Jurkat T cells pre-activated 30 minutes with anti-CD3/CD28 or PMA/A23187, then 4H3MC 10 μM
[5] = Jurkat T cells, 4H3MC 10 μM pretreatment 1 hour, anti-CD3/CD28 or PMA/A23187

T1 sequence (Q04759 whole entry): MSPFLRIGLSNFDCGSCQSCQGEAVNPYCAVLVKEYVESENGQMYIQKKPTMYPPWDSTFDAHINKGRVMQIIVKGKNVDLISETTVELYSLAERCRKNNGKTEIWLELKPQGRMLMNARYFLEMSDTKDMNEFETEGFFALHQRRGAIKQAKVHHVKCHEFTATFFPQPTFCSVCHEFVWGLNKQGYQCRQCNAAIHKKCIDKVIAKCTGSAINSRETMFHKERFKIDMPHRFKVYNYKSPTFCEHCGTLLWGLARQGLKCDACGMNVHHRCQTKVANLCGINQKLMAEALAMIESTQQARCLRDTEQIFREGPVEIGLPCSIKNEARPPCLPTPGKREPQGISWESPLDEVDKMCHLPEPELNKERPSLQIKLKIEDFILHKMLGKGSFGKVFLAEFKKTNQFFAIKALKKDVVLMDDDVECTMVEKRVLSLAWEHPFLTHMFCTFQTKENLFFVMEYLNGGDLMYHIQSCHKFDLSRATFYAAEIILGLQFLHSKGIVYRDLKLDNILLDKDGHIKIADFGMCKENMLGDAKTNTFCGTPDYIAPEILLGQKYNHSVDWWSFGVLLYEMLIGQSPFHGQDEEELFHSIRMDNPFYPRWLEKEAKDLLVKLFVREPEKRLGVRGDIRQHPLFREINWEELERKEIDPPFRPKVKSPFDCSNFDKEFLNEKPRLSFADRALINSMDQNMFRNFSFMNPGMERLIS

Row | SMILES | apoptosis or necrosis (Jurkat T cells; 10-100 μM) | apoptosis or necrosis by Hoechst staining (Jurkat T cells; effective concentration (10 μM)) | necrosis (Jurkat T cells; high concentrations (250 μM)) | luciferase activities of NF-κB, AP-1 and NFAT (AP-1, NF-κB and NFAT) | pIC50 [1] | fold effectiveness versus HCA in inhibition of IL-2 in T cells ([1]; comparison of IC50 values of 4H3MC and HCA) | time-dependent IL-2 secretion ([1]; human PBLs, 4H3MC 10 μM pretreatment 1 hour, PMA/A23187) | PKC activity (PKC) | ear symptoms (flushed and swollen) 28 days after induction [2] | ear thickness [2] | phosphorylation and accumulation of PKCθ at the IS (PKCθ) | phosphorylated forms of PKCθ, ERK and p38, post-treatment (PKCθ, ERK and p38 kinase; [4]) | phosphorylation of ERK and p38 (PKCθ, ERK and p38 kinase; [5]) | phosphorylation of PKCθ (PKCθ, ERK and p38 kinase; [5]) | IL-2 expression (mRNA) ([3]; Jurkat T cells and human PBLs pretreated 1 hour with 4H3MC 0-250 μM, then PMA/A23187 or anti-CD3/CD28 for 6 hours) | concentration at which dramatic inhibition of IL-2 expression was seen ([3]; Jurkat T cells and human PBLs, pretreatment 1 hour, PMA/A23187 or anti-CD3/CD28) | IL2 mRNA expression, post-treatment [3, 4] | time-dependent IL-2 mRNA expression ([3]; Jurkat T cells, 4H3MC 10 μM pretreatment 1 hour, anti-CD3/CD28 or PMA/A23187 for various times)
1 | COc1cc(C=CC=O)ccc1O [4H3MC, 4-Hydroxy-3-methoxycinnamaldehyde] | did not induce apoptosis or necrosis | does not induce apoptosis or necrosis at its effective concentration | induced necrosis in some Jurkat T cells | considerably reduced PMA/A23187-induced luciferase activities of NF-κB, AP-1 and NFAT | ~5.60 | ~5 fold | significantly reduced | significantly inhibited PKC-specific activity with the lower effective concentration than HCA | such symptoms were alleviated | became significantly thinner from 8 days | significantly reduced the phosphorylation as well as accumulation of PKCθ at the IS | significantly reduced | dramatically reduced anti-CD3/CD28- and PMA/A23187-induced phosphorylation of ERK and p38 | significantly blocked phosphorylation of PKCθ | significantly inhibited IL-2 expression in a concentration-dependent manner | 2 to 10 µM | effectively reduced the expression of IL2 mRNA in pre-activated Jurkat T cells | inhibited IL-2 mRNA expression at the early time point (about 3 hours) after stimulation which lasted over 6 hours
2 | O=C(O)C=Cc1ccc(O)cc1 [HCA, p-hydroxycinnamic acid, reference compound] |  |  |  |  | 4.74 to 4.82 |  |  | inhibit PKC activity in vitro |  |  |  |  |  |  |  |  |  | 
